Test results taken from patent US7996068B2, “Surgical method and apparatus for identification of fluorescence” (The Board of Trustees of the Leland Stanford Junior …, priority 2007, dated 2011).

What was measured:
[1] = human, in vivo
Excerpt: In some embodiments, intravenous fluorescein can be used as the fluorescent agent.

[2] = human, cited from earlier work

For O=C1OC2(c3ccc(O)cc3Oc3cc(O)ccc32)c2ccccc21 [fluorescein], the “concentration of fluorescein in urine” value [1] was “about 0.1 mg/ml”, the “concentration of fluorescein in urine relative to concentration in the blood” value [1] was “about 5 ×” and the “rate of drug excreted into the ureters” value [1] was 0.05 mg/min. For the same molecule, the “fraction of dose metabolized” value ([2]; 14 mg/kg dose, IV, within 1 hour of administration) was 80%, the “time the urine remains slightly fluorescent post dose” value ([2]; post dose) was 24 to 36 h and the volume of distribution [2] was 0.5 L/kg.
